# Measurements from patent US12521387B2, “Prophylactic or therapeutic drug for neurodegenerative diseases” (Medilabo RFP, Inc., priority 2019, dated 2026).
# Entries after “also recorded” stand apart in the source; their conditions may differ. Read-outs that look alike come from different tables or passages of the source.
# Key:
# [1] = tested on: mitogen (division promoting factor)-activated protein (MAP) kinase; settings: differentiated or undifferentiated human neuroblast SH-SY5Y; cited from earlier work
# [2] = tested on: APPOSK mice; test: Liver enzymes AST (GOT) and ALT (GPT) in serum (hepatic dysfunction); format: in vivo, mouse; settings: for AST level (in words): transnasal
# Description: Blood was collected from each of the mice after the completion of the behavioral test, and then serum was separated from the blood to prepare a serum sample.
# [3] = target: T1, Aβ42 (Homo sapiens, UniProt P05067); test: Suppression of the toxicity of Aβ42; settings: confirmed by the present inventors
# T1 construct: suppress the toxicity of Aβ42
# [4] = tested on: Tauopathy model mice (Tau784); test: Morris water maze behavioral test (cognitive function) in tauopathy model mice; format: in vivo, mouse; settings: Tau784 mice 14-15 mo, transnasal, every day for 1 month
# Description: Tauopathy model mice (Umeda T et al., Am. J. Pathol. 183, 211-225, 2013) were provided, 14- to 15-month-old individuals of the model mice were used as subjects of administration.
# [5] = tested on: APPOSK mice; test: Morris water maze behavioral test (spatial reference memory, cognitive function) in Alzheimer's disease model mice; format: in vivo, mouse; settings: for Cognitive function (Morris water maze): transnasal
# Description: Eleven-month-old male APPOSK mice (Tomiyama et al. J Neurosci. 2010; 30: 4845-56) were provided. The body weight of each of the APPOSK mice was about 30 g. Sixty APPOSK mice were divided into five groups A to E each including 12 mice. Separately, 12 wild-type mice (non-Tg littermate) of the same month old were provided. The APPOSK mice were amyloid precursor protein (APP) transgenic mice (Alzheimer's disease models), and had accumulation of amyloid-β (Aβ) protein.
# For oral administration, an oral sound for rodents was used; for transnasal administration, pipetman (white tip) was used; and for subcutaneous administration, an injection syringe was used. All of these administrations were carried out under non-anesthesia.
# The behavioral test was carrying out by determining the spatial reference memory of each of the mice using a Morris water maze in accordance with the method described in Umeda et al. Brain 2016; 139: 1568-86.
# Thirteen-month-age (13 mo) individuals of the APPOSK mice shown in Test Example 1 were used.
# [6] = tested on: causative protein for a neurodegenerative disease; test: Suppression of the aggregation of a causative protein for a neurodegenerative disease; settings: confirmed by the present inventors
# [7] = target: T2, Aβ oligomers (Homo sapiens, UniProt P05067, DEL693-693); format: in vivo, mouse; settings: APPOSK mice, transnasal, every day for 1 month
# T2 construct: had accumulation of amyloid-β (Aβ) protein; from tissue; host or cells: brain (hippocampus) of APPOSK transgenic mice
# Description: (§1) Each of Aβ oligomers (Aβ oligomers have been believed to cause the phosphorylation of tau and the decrease in synaptophysin), synaptophysin (a marker protein for a synapse) and phosphorylated tau was stained by an immunohistochemical staining method in accordance with the procedure described in Umeda et al. Brain 2016; 139: 1568-86. For the staining of the Aβ oligomers, 11A1 antibody (Immuno-Biological Laboratories Co, Ltd.) was used; for the staining of synaptophysin, SVP-38 antibody (Sigma) was used; and for the staining of phosphorylated tau, mouse monoclonal PHF-1 antibody (an anti-p-Ser396/404-tau antibody, provided by Peter Davies, Ph. d., Albert Einstein College of Medicine). After the staining, each of the Aβ oligomers, synaptophysin and phosphorylated tau was quantified using NIH image-J.
# [8] = tested on: patients having mild to moderate Alzheimer's disease; settings: 119 patients, 52 weeks; 500 mg, increased by 500 mg every 13 weeks to 1000 mg twice per day; cited from earlier work
# [9] = target: Aβ (Homo sapiens, UniProt P05067); test: In vitro formation of oligomers of Aβ
# [10] = tested on: AD model mouse in which Aβ is accumulated; test: Oral administration to AD model mouse; format: in vivo; settings: orally administered
# [11] = tested on: α-synuclein transgenic (αSyn-Tg) mice each having an A53T mutation; test: Morris water maze behavioral test (cognitive function) in synucleinopathy model mice; format: in vivo, mouse; settings: αSyn-Tg 6 mo mice (DLB model); rifampicin 0.1 mg/day transnasal, every day for 1 month; listed as Reference Working Example 5
# Experimental: As synucleinopathy models, α-synuclein transgenic (αSyn-Tg) mice each having an A53T mutation were purchased from Jackson Laboratories. […] Therefore, in this Test Example, αSyn-Tg 6 mo mice and αSyn-Tg 9 mo mice were used as the subjects of administration.
# The motor function and the cognitive function of each of the model mice were confirmed by a motor function test and a cognitive function test as mentioned below. The motor function test was carried out using a rotarod. Each of the mice was placed on a rotor which could rotate at a speed of 5 rpm (5 rotations per minute), was then subjected to such a training that the mouse was allowed to walk on the rotor for 3 minutes, and was then placed on a rotor of which the speed of rotation could increase from 4 rpm to 40 rpm over 4 minutes, and the time (seconds) until the mouse fell off the rotor was measured (when the mouse was turned once while holding on to the rotor, it was deemed that the mouse fell off). The measurement was carried out twice per day, and an average value of the measurement values was determined. The cognitive function test was carried out in accordance with the method described in Umeda et al. Brain 2016; 139: 1568-86 by measuring the spatial reference memory of the mice using a Morris water maze (the cognitive function test in the below-mentioned examples was carried out in the same manner as in this Test Example). […]
# [12] = tested on: phosphorylated tau; test: Immunohistochemical staining and quantification of phosphorylated tau in hippocampus (PHF-1 antibody); format: in vivo, mouse; settings: APPOSK mice; rifampicin 0.05 mg/day transnasal, every day for 1 month; listed as Reference Working Example 3
# Description: as §1
# [13] = target: α-synuclein (Homo sapiens, UniProt P37840); test: In vitro formation of oligomers of α-synuclein
# [14] = tested on: synaptophysin; test: Immunohistochemical staining and quantification of synaptophysin in hippocampus (SVP-38 antibody); format: in vivo, mouse; settings: APPOSK mice; rifampicin 0.05 mg/day transnasal, every day for 1 month; listed as Reference Working Example 3
# Description: as §1
# [15] = tested on: FTD model mouse in which tau is accumulated; test: Oral administration to FTD model mouse; format: in vivo; settings: orally administered
# [16] = tested on: tau; test: In vitro formation of oligomers of tau
# [17] = APPOSK mice, serum, rifampicin 0.05 mg/day transnasal, every day for 1 month, Mean ± SEM, n = 11
smiles,measurement,setting,value
"Oc1ccc(/C=C/c2cc(O)cc(O)c2)cc1 [resveratrol, 3,5,4′-trihydroxy-trans-stilbene]",Phosphorylation of MAP kinase,[1],induces the phosphorylation of mitogen (division promoting factor)-activated protein (MAP) kinase
same,AST level,"[2]; APPOSK mice (not shown), resveratrol 0.1 mg administered alone",about 86 IU/L
same,AST level / liver protection activity (in words),"[2]; APPOSK mice (not shown), resveratrol 0.1 mg alone, compared with Reference Example 9 (CMC)",the AST level was decreased and a positive liver protection activity was confirmed
same,AST level (in words),"[2]; APPOSK mice, resveratrol 0.02 mg/day alone, every day for 1 month, compared with Reference Example 9 (CMC)",AST was not reduced
same,Effect to suppress the toxicity of Aβ42,[3],significantly weaker compared with rifampicin
same,Cognitive function (Morris water maze),"[4]; resveratrol 0.02 mg/day alone, listed as Reference Example 15",the cognitive function improving effect was developed slowly; also recorded: a slow cognitive function-improving effect on a neurodegenerative disease was observed
same,Cognitive function (Morris water maze),"[5]; APPOSK mice 13 mo, resveratrol 0.02 mg/day, every day for 1 month (Test Example 6)","the cognitive function-improving effect was observed, although the effect was exerted slowly"
same,Cognitive function (Morris water maze),"[5]; APPOSK mice 13 mo, resveratrol 0.1 mg/day, every day for 1 month (Test Example 6)",the improvement of cognitive function was observed to a level close to that observed in the wild-type mice
same,Cognitive function (Morris water maze),"[5]; APPOSK mice, resveratrol 0.02 mg/day alone, every day for 1 month (Test Example 3), listed as Reference Example 10",the cognitive function improving tendency was observed; also recorded: a slow cognitive function-improving effect on a neurodegenerative disease was observed
same,Effect to suppress the aggregation of a causative protein for a neurodegenerative disease,[6],weak
same,Removal of accumulated Aβ oligomers (immunostaining),"[7]; resveratrol 0.02 mg/day alone, listed as Reference Example 10","the effect to remove the accumulated Aβ oligomers was observed, but the level of the effect was smaller than that in Example 1; also recorded: the accumulated Aβ oligomers removing effect was confirmed; also recorded: the significant removal of the accumulated oligomers was observed"
same,Effectiveness on Alzheimer's disease compared with placebo,[8],the effectiveness of the administration of resveratrol could not been confirmed
"CO[C@H]1/C=C/O[C@@]2(C)Oc3c(C)c(O)c4c(O)c(c(/C=N/N5CCN(C)CC5)c(O)c4c3C2=O)NC(=O)/C(C)=C\C=C\[C@H](C)[C@H](O)[C@@H](C)[C@@H](O)[C@@H](C)[C@H](OC(C)=O)[C@@H]1C [rifampicin, 3-(4-methylpiperazinyliminomethyl)rifamycin SV]",Inhibition of in vitro formation of oligomers of Aβ,[9],can inhibit the in vitro formation of oligomers
same,Cognitive function,[10],can recover the cognitive function of the mouse
same,ALT,[2]; [17],40 ± 10 IU/L
same,AST,[2]; [17],165 ± 32 IU/L
same,AST level (in words),"[2]; APPOSK mice, rifampicin 0.02 mg/day alone, every day for 1 month, listed as Comparative Example 1","the increase in AST level, which indicated the occurrence of adverse side effects, was observed; also recorded: significantly reduced compared with the case of oral administration"
same,Cognitive function / memory impairment (Morris water maze),[11],the improvement of memory impairment was observed from day 1 after the administration; also recorded: the cognitive function was recovered to the same level as that in normal Non-Tg mice
same,Phosphorylated tau reduction in the hippocampus (immunostaining),[12],the amount of phosphorylated tau accumulated in the brain was decreased and high
same,Effect to suppress the toxicity of Aβ42,[3],can completely suppress the toxicity of Aβ42
same,Cognitive function (Morris water maze),[4]; rifampicin 0.02 mg/day alone,the cognitive function improving effect was developed slowly
same,Inhibition of in vitro formation of oligomers of α-synuclein,[13],can inhibit the in vitro formation of oligomers
same,Synaptophysin recovery in the hippocampus (immunostaining),[14],the decreased synaptophysin was recovered; also recorded: the same level as that in the wild-type mice; also recorded: the effect was higher than that in the oral administration
same,Cognitive function,[15],can recover the cognitive function of the mouse
same,Cognitive function (Morris water maze),"[5]; APPOSK mice, rifampicin 0.02 mg/day alone, every day for 1 month",the cognitive function improving tendency was observed
same,Improvement of memory impairment (Morris water maze),"[5]; APPOSK mice, rifampicin 0.05 mg/day transnasal, every day for 1 month, listed as Reference Working Example 3",the improvement effect was at the same level as that in the wild-type mice; also recorded: the improvement effect was higher than that in the case of oral administration
same,Inhibition of in vitro formation of oligomers of tau,[16],can inhibit the in vitro formation of oligomers
same,Removal of accumulated Aβ oligomers (immunostaining),[7]; rifampicin 0.02 mg/day alone,"the effect to remove the accumulated Aβ oligomers was observed, but the level of the effect was smaller than that in Example 1"
